For the assay, the system named is L1210 leukemia ip in BDF1 mice, survival T/C. As to the kind of experiment: NCI In Vivo Anticancer Drug Screen. Data for tumor model L1210 Leukemia (intraperitoneal) in B6D2F1 (BDF1) mice. The conditions noted are these: endpoint: mean survival time, higher = longer survival. The method, then:
The antitumor activity of compounds was measured in mice bearing transplantable tumors. Survival or tumor size were measured and the results are expressed as the measurement made in the treated group (T) divided by the measurement made in the vehicle treated control group (C). The tumor model used in this assay is L1210 Leukemia (intraperitoneal) in B6D2F1 (BDF1) mice

Setting [1] is: dose: 100.0 mg/kg/injection, schedule: Q01DX009 (ip), vehicle: saline.
The mark [2] stands for this setting: dose: 100.0 mg/kg/injection, schedule: Q04DX003 (ip), vehicle: saline.
Setting [3] is: dose: 200.0 mg/kg/injection, schedule: Q04DX003 (ip), vehicle: saline.
The mark [4] stands for this setting: dose: 400.0 mg/kg/injection, schedule: Q04DX003 (ip), vehicle: saline.
The mark [5] stands for this setting: dose: 100.0 mg/kg/injection, schedule: Q01DX009 (ip), vehicle: saline with Tween-80.

Where “and” joins values, the source holds several entries; their conditions need not be identical. Identical values can stand only once. Toxic doses and inconclusive results are not listed.

Regarding `O=P(NC12CC3CC(CC(C3)C1)C2)(N1CC1)N1CC1`, the T/C is 107 % of control (dose: 4.0 mg/kg/injection, schedule: Q04DX003 (ip), vehicle: Klucel (hydroxypropylcellulose) (HPC)); 150 % of control (dose: 9.0 mg/kg/injection, schedule: Q04DX003 (ip), vehicle: Klucel (hydroxypropylcellulose) (HPC)); 152 % of control and 182 % of control (dose: 13.3 mg/kg/injection, schedule: Q04DX003 (ip), vehicle: Klucel (hydroxypropylcellulose) (HPC)); 155 % of control and 176 % of control and 225 % of control (dose: 20.0 mg/kg/injection, schedule: Q04DX003 (ip), vehicle: Klucel (hydroxypropylcellulose) (HPC)); 169 % of control (dose: 27.0 mg/kg/injection, schedule: Q01DX001 (ip), vehicle: Klucel (hydroxypropylcellulose) (HPC)); 92 % of control (dose: 30.0 mg/kg/injection, schedule: Q04DX003 (ip), vehicle: Klucel (hydroxypropylcellulose) (HPC)).

`Nc1cc(S(=O)(=O)O)cc2ccc(S(=O)(=O)O)cc12`: the T/C runs as follows: under setting [1], 102 % of control; under setting [2], 111 % of control; (dose: 200.0 mg/kg/injection, schedule: Q01DX009 (ip), vehicle: saline) 96 % of control; under setting [3], 101 % of control; (dose: 400.0 mg/kg/injection, schedule: Q01DX009 (ip), vehicle: saline) 102 % of control; under setting [4], 93 % of control.

`CNC(=O)OCC1=CC(=O)C(OC)=CC1=O`: the T/C was 91 % of control (dose: 0.37 mg/kg/injection, schedule: Q01DX009 (ip), vehicle: Klucel (hydroxypropylcellulose) (HPC)); 98 % of control (dose: 0.75 mg/kg/injection, schedule: Q01DX009 (ip), vehicle: Klucel (hydroxypropylcellulose) (HPC)); 92 % of control (dose: 12.5 mg/kg/injection, schedule: Q04DX003 (ip), vehicle: Klucel (hydroxypropylcellulose) (HPC)); 88 % of control (dose: 25.0 mg/kg/injection, schedule: Q01DX009 (ip), vehicle: Klucel (hydroxypropylcellulose) (HPC)); 103 % of control (dose: 25.0 mg/kg/injection, schedule: Q04DX003 (ip), vehicle: Klucel (hydroxypropylcellulose) (HPC)).

For `O=c1[nH]c(=O)c2ccccc2o1`, the T/C reads like this: (dose: 2.5 mg/kg/injection, schedule: Q04DX003 (ip), vehicle: saline) 100 % of control; (dose: 5.0 mg/kg/injection, schedule: Q04DX003 (ip), vehicle: saline) 105 % of control; (dose: 10.0 mg/kg/injection, schedule: Q04DX003 (ip), vehicle: saline) 100 % of control; under setting [5], 105 % of control.

Consider `Cc1ccc(S(=O)(=O)Nc2ccccc2-c2nc3ccc(C)cc3c(=O)o2)cc1`, for which the T/C runs as follows: (dose: 100.0 mg/kg/injection, schedule: Q04DX003 (ip), vehicle: saline with Tween-80) 88 % of control; (dose: 200.0 mg/kg/injection, schedule: Q04DX003 (ip), vehicle: saline with Tween-80) 94 % of control; (dose: 400.0 mg/kg/injection, schedule: Q04DX003 (ip), vehicle: saline with Tween-80) 116 % of control.

On to `CSc1nc2c(n1-c1ccccc1)C(=O)C(OS(=O)(=O)c1ccccc1)C(=O)N2` (stereo not given), for which the T/C was 95 % of control (dose: 75.0 mg/kg/injection, schedule: Q01DX001 (ip), vehicle: saline with Tween-80); 98 % of control (dose: 150.0 mg/kg/injection, schedule: Q01DX001 (ip), vehicle: saline with Tween-80); 98 % of control (dose: 300.0 mg/kg/injection, schedule: Q01DX001 (ip), vehicle: saline with Tween-80).

Regarding `O=C(Nc1ccc(C2=NCCN2)cc1)c1ccc(C(=O)Nc2ccc(C3=NCCN3)cc2)c(F)c1`, the T/C is 119 % of control (dose: 2.75 mg/kg/injection, schedule: Q01DX Z (ip), vehicle: carboxymethylcellulose (CMC)); 122 % of control (dose: 11.0 mg/kg/injection, schedule: Q01DX Z (ip), vehicle: carboxymethylcellulose (CMC)); 227 % of control (dose: 22.0 mg/kg/injection, schedule: Q01DX Z (ip), vehicle: carboxymethylcellulose (CMC)); 100 % of control (dose: 31.0 mg/kg/injection, schedule: Q01DX Z (oral), vehicle: carboxymethylcellulose (CMC)); 291 % of control (dose: 45.0 mg/kg/injection, schedule: Q01DX Z (ip), vehicle: carboxymethylcellulose (CMC)); 101 % of control (dose: 62.0 mg/kg/injection, schedule: Q01DX Z (oral), vehicle: carboxymethylcellulose (CMC)). For the same compound, the T/C (dose: 90.0 mg/kg/injection, schedule: Q01DX Z (ip), vehicle: carboxymethylcellulose (CMC)) was 167 % of control; the T/C (dose: 112.0 mg/kg/injection, schedule: Q01DX Z (oral), vehicle: carboxymethylcellulose (CMC)) is 105 % of control; the T/C (dose: 180.0 mg/kg/injection, schedule: Q01DX Z (ip), vehicle: carboxymethylcellulose (CMC)) is 94 % of control; the T/C (dose: 225.0 mg/kg/injection, schedule: Q01DX Z (oral), vehicle: carboxymethylcellulose (CMC)) was 103 % of control.

Regarding `O=C(CNC(=O)NCc1ccccc1)NNC(=O)Nc1cccc(C(F)(F)F)c1`, the T/C reads like this: (dose: 50.0 mg/kg/injection, schedule: Q01DX009 (ip), vehicle: saline with Tween-80) 102 % of control; under setting [5], 87 % of control; (dose: 200.0 mg/kg/injection, schedule: Q01DX009 (ip), vehicle: saline with Tween-80) 91 % of control.

For the compound `O=[N+]([O-])c1cc(Br)c2c(c1)CCN2`, the T/C was 100 % of control (dose: 12.5 mg/kg/injection, schedule: Q01DX005 (ip), vehicle: other); 102 % of control (dose: 25.0 mg/kg/injection, schedule: Q01DX005 (ip), vehicle: other); 100 % of control (dose: 50.0 mg/kg/injection, schedule: Q01DX005 (ip), vehicle: other); 105 % of control (dose: 100.0 mg/kg/injection, schedule: Q01DX005 (ip), vehicle: other); 102 % of control (dose: 200.0 mg/kg/injection, schedule: Q01DX005 (ip), vehicle: other).

As to `CC(=O)OC1COC(n2cnc3c(=S)nc[nH]c32)C(OC(C)=O)C1OC(C)=O` (stereo not given), the T/C is 107 % of control (dose: 100.0 mg/kg/injection, schedule: Q01DX001 (ip), vehicle: other); 94 % of control (dose: 100.0 mg/kg/injection, schedule: Q01DX001 (ip), vehicle: saline); 90 % of control (dose: 200.0 mg/kg/injection, schedule: Q01DX001 (ip), vehicle: other); 93 % of control (dose: 200.0 mg/kg/injection, schedule: Q01DX001 (ip), vehicle: saline); 96 % of control (dose: 400.0 mg/kg/injection, schedule: Q01DX001 (ip), vehicle: other); 96 % of control (dose: 400.0 mg/kg/injection, schedule: Q01DX001 (ip), vehicle: saline).

Regarding `O=C1OC(c2ccccc2)=N/C1=C\c1ccc([N+](=O)[O-])cc1`, the T/C is, setting by setting: (dose: 100.0 mg/kg/injection, schedule: Q04DX002 (ip), vehicle: Klucel (hydroxypropylcellulose) (HPC)) 92 % of control; (dose: 200.0 mg/kg/injection, schedule: Q04DX002 (ip), vehicle: Klucel (hydroxypropylcellulose) (HPC)) 89 % of control; (dose: 400.0 mg/kg/injection, schedule: Q04DX002 (ip), vehicle: Klucel (hydroxypropylcellulose) (HPC)) 86 % of control.

With `Nc1c(I)cc2c(c1I)Cc1cc([N+](=O)[O-])ccc1-2`, the T/C was 106 % of control (dose: 100.0 mg/kg/injection, schedule: Q01DX001 (ip), vehicle: carboxymethylcellulose (CMC)); 103 % of control (dose: 200.0 mg/kg/injection, schedule: Q01DX001 (ip), vehicle: carboxymethylcellulose (CMC)); 103 % of control (dose: 400.0 mg/kg/injection, schedule: Q01DX001 (ip), vehicle: carboxymethylcellulose (CMC)).

Turning to `C/C=C/COc1cc[n+]([O-])cc1`, the T/C is 102 % of control under setting [2] and 107 % of control under setting [3].

Consider `Cc1cc(=O)c2cc(Cc3ccc4[nH]c(C)cc(=O)c4c3)ccc2[nH]1`, for which the T/C runs as follows: (dose: 50.0 mg/kg/injection, schedule: Q01DX009 (ip), vehicle: saline) 91 % of control; under setting [1], 88 % of control; under setting [2], 94 % of control; under setting [3], 94 % of control; under setting [4], 93 % of control.

For the compound `Cc1c(CC(Cl)Cl)cc(-c2ccccc2)c2ccccc12`, the T/C runs as follows: (dose: 100.0 mg/kg/injection, schedule: Q04DX003 (ip), vehicle: Klucel (hydroxypropylcellulose) (HPC)) 96 % of control; (dose: 200.0 mg/kg/injection, schedule: Q04DX003 (ip), vehicle: Klucel (hydroxypropylcellulose) (HPC)) 92 % of control; (dose: 400.0 mg/kg/injection, schedule: Q04DX003 (ip), vehicle: Klucel (hydroxypropylcellulose) (HPC)) 100 % of control.

Take `CC(C)=CCC1=C(O)C(C)=CC(=O)C1=O`: the T/C is 97 % of control (dose: 100.0 mg/kg/injection, schedule: Q01DX001 (ip), vehicle: water); 94 % of control (dose: 200.0 mg/kg/injection, schedule: Q01DX001 (ip), vehicle: water); 97 % of control (dose: 400.0 mg/kg/injection, schedule: Q01DX001 (ip), vehicle: water).

These data come from PubChem BioAssay AID248 (DTP/NCI, 2004).
